Test [1] has as its system Rattus norvegicus. As to the kind of experiment: Hypoglycemic activity in STZ-nicotinamide Wistar rat model of diabetes at 50 mg/kg administered intragastrically as single dose measured after 7 hrs relative to control. In kind it is functional. Conditions: route intragastric.
Test [2] relates to Rattus norvegicus. As to the kind of experiment: Hypoglycemic activity in STZ-nicotinamide Wistar rat model of diabetes at 50 mg/kg administered intragastrically as single dose. Format: functional, organism-based. Also noted: dose 50 mg/kg. Conditions: TDE = time-dependent effect.

Regarding `Cc1c(C(=O)NN2CCCCC2)nn(-c2ccc(Cl)cc2Cl)c1-c1ccccc1`, the Activity in the test with Rattus norvegicus [1] is given as 1.08%.

For `Cc1c(C(=O)NN2CCCCC2)nn(-c2ccc(Cl)cc2Cl)c1-c1ccc(Cl)cc1` [RIMONABANT], in the test on Rattus norvegicus [1], the Activity came to 25.4%.

For `Cc1c(C(=O)NN2CCCCC2)nn(-c2ccccc2)c1-c1ccccc1`, in the test on Rattus norvegicus [1], the Activity came to 37.2%.

In the case of `Cc1c(C(=O)NN2CCCCC2)nn(-c2ccc(F)cc2F)c1-c1ccc(C(F)(F)F)cc1`, the Activity in the test on Rattus norvegicus [1] worked out at 54.2%.

`Cc1c(C(=O)NN2CCCCC2)nn(-c2ccc(C(F)(F)F)cc2)c1-c1ccc(Br)cc1`: the Activity in the test on Rattus norvegicus [1] is -2.4%.

Turning to `Cc1c(C(=O)NN2CCCCC2)nn(-c2ccc(Cl)c(Cl)c2)c1-c1ccc(Cl)cc1`, the Activity with Rattus norvegicus [1] is 54.7%; in the test on Rattus norvegicus [2] it was “tde”.

For the compound `Cc1c(C(=O)NN2CCCCC2)nn(-c2ccnc3cc(Cl)ccc23)c1-c1ccc(Cl)cc1`, in the test on Rattus norvegicus [1], the Activity is listed as 34.2%.

Consider `Cc1c(C(=O)NN2CCCCC2)nn(-c2ccc(Cl)cc2Cl)c1-c1ccc(C(F)(F)F)cc1`, for which, in the test on Rattus norvegicus [1], the Activity is recorded as 43.9%.

Turning to `Cc1c(C(=O)NN2CCCCC2)nn(-c2ccc(C(F)(F)F)cc2)c1-c1ccc(Cl)cc1`, in the test with Rattus norvegicus [1], the Activity is 27.3%.

Turning to `COc1ccc(Cl)cc1C(=O)NCCc1ccc(S(=O)(=O)NC(=O)NC2CCCCC2)cc1` [GLYBURIDE], the Activity with Rattus norvegicus [1] stood at 38%.

Consider `Cc1c(C(=O)NN2CCCCC2)nn(-c2ccc(F)cc2F)c1-c1ccc(F)cc1`, for which the values for the Activity in the test on Rattus norvegicus [1] and in the test on Rattus norvegicus [2] were 49.4% and “tde”, respectively.

In the case of `Cc1c(C(=O)NN2CCCCC2)nn(-c2ccc(F)c(Cl)c2)c1-c1ccc(Cl)cc1`, in the test with Rattus norvegicus [1], the Activity is recorded as 33.6%.

As for `Cc1c(C(=O)NN2CCCCC2)nn(-c2ccnc3cc(Cl)ccc23)c1-c1ccc(F)cc1`, in the test on Rattus norvegicus [1], the Activity stood at 22.4%.

Regarding `Cc1c(C(=O)NN2CCCCC2)nn(-c2ccc(F)c(Cl)c2)c1-c1ccc(F)cc1`, the Activity was 58.7% in the test on Rattus norvegicus [1] and “tde” with Rattus norvegicus [2].

Values taken from ChEMBL document CHEMBL3102729, “Synthesis, hypoglycemic activity and molecular modeling studies of pyrazole-3-carbohydrazides designed by a CoMFA model” (2013).
